Counter-ions that a name gives are not always drawn.
What was measured:
cytochrome C and P 450 = assay: Cytochrome C and P450 activities in atherogenic-diet rats; format: in vivo; conditions: atherosclerosis induced by atherogenic diet in rats
Text: During model-experiments of atherosclerosis induced by atherogenic diet in rats, the pathologic increase of cythochrome C and P 450 enzyme activities is to be observed. This is disadvantageous because these enhanced enzyme activities induce tissular lipid peroxidation, involving all of its well known untoward consequences. As the first step of this chain reaction superoxyde - anion radical is formed from molecular oxygen. Laitar however initiate further few radical reactions.

[1] = test system: hyperoxia (95% oxygen and 5% CO2); assay: Hyperoxia-inhibiting effect; format: in vivo, rats
Description: CFY rats with an average body weight of 250 g each, belonging to both sexes were kept in an atmosphere of 95% oxygen and 5% CO2. Three treatment groups were formed.
Group 2 (n=25): Hyperoxia was induced as described for Group 1, however, 20 mg/kg body weight/day i.v. Dexamethasone (steroid hormone preparation) was administered during the hyperoxia period. […] Autopsy and histological examinations were performed on the animals died and on the animals sacrificed on the 35th day.
Group 3 (n=25): Hyperoxia was induced as in the Groups mentioned above, but during the period of hyperoxia 65 mg/kg body weight of the compound according to Example 4 was administered i.v. The rate of death amounted to 4% (1 animal).

[2] = test system: TXB2 formation in human leukocyte homogenate; assay: TXB2 formation from arachidonic acid in human leukocyte homogenate (RIA); format: biochemical; conditions: DMSO control 1.95 ± 0.31
Description: The transformation of arachidonic acid to thromboxane B2 and leukotriene B4 in a human leukocyte homogenate was measured by means of the method published by Tetason, J. E. et al., Brit. J. Pharmacol., 1988 94:528-529, as follows: Fresh blood, from donors who had not ingested aspirin or other drugs for at least 14 days previously, was collected, with EDTA (1.2 mgml^-1) as anticoagulant; erythrocytes were sedimented by addition of 2% methyl cellulose (7.5 ml 100^-1 blood) and incubation for 40 minutes at 37° C. The supernatant containing leukocytes and platelets was removed, diluted two fold with sodium phosphate-buffered saline (0.9% NaCl, pH 7.2, 20 mM phosphate) and centrifuged for 10 minutes at 150 g. The supernatant, containing platelets, was removed and the leukocyte pellet resuspended in 50 ml of ice-cold 0.82% NH4 Cl containing 5 mM KCl (brought to pH 7.4 with 4.4% NaHCO3). This procedure lysed any remaining erythrocytes during 10 minutes incubation on ice. The leukocyte suspension was then centrifuged again (10 minutes, 150 g) and the pellet resuspended in 25 ml sodium phosphate buffer (50 mM, pH 7.0) containing EDTA (1 mM). […]
DMSO was added. […] Reaction products, TXB2 and LTB4, were measured by specific radioimmunoassay (RIA) as published by Salmon, J. A. Prostaglandins, 1978 15: 383-397; and Salmon, J. A. et al., Prostaglandins, 1982, 24:225-235. […]

Erlich ascites tumor = assay: Tumor-inhibiting effect on the Erlich ascites tumor; format: in vivo, mice
Description: A daily oral dose of 150 mg/kg of body-weight of the compound prepared in Example 1 was administered to LATI-inbred CFLP male mice weighing 20 to 22 g each for 5 days, then 2×10^6 of Erlich ascites tumour cells were implanted under sterile conditions. Thereafter, the drug-treatment was continued and an examination was carried out on the 16th day following the implantation. An 80% inhibition was observed on the 17th day. The percentage of inhabitation was determined as described by Zs. Pollak in the dissertation entitled "Development of a Radiosensitizing Antioxidant and Use Thereof in the Oncological Practice" pages 44 to 45 and 76 to 82, as cited above.

gastric mucosa = assay: Protection of the gastric mucosa against ethanol; format: in vivo, rats; conditions: anhydrous ethanol + 100 mg/kg by gastric tube; ethanol only 21±0.31%
Description: The protection of the gastric mucosa against the effect of ethanol was investigated. Ten CFY male rats weighing 200 to 220 g each were starved for 18 hours while allowing them to consume water ad libitum. Then, a dose of 50 or 100 mg/kg of body weight of the compound prepared in Example 1 was administered in such a way that the active agent had previously homogenized in an 1% aqueous methylcellulose solution for 1 minute. The substance was administered through a gastric tube. After 30 minutes, 1 ml of anhydrous ethanol each was orally given to the animals. Five minutes later the animals were decapitated under a general anaesthesia, their stomachs were removed, opened along the large curvature and washed with water. Thereafter the stomachs were stretched out and photographed. The alterations found on the gastric mucosa were observed by planimetry. The lesions were given as percentage of the whole surface.

[3] = Acute toxicity study and determination of LD50; format: in vivo; conditions: rat, in vivo; oral, Wistar rats of both sexes
Description: (§1) The Example was carried out in Wistar rats (Lati, Budapest) of both sexes weighing 150-160 g each. Doses of L90 were measured by an analytical balance, for each animal and suspended in 2 ml of paraffine oil while mixing at 60° C. Suspension was then cooled to room temperature and administered through a gastric tube. Animals were fed with standard rat feed (Lati, Budapest) and received water ad libitum. They were kept at a room temperature of 23 to 25° C. The relative humidity of room air amounted to 50-70 percent. Three study groups of animals were formed.
(§2) The animals received a single dose of L90 amounting to 1 g/kg body weight.
(§3) The animals received a single dose of L90 amounting to 5 g/kg body weight.
(§4) The animals received a single dose of 2 ml of paraffine oil (control group).
(§5) Animals were carefully observed on 10 subsequent days, after treatment. On day 11, the animals were sacrificed in general anesthesia. Autopsy of all animals was performed followed by the macroscopic examination of all organs.

Wistar rats = assay: Acute toxicity study and determination of LD50; format: in vivo
Description: as §1, §2, §3, §4, §5

[4] = test system: extrinsic bronchial asthma; assay: Investigation of MTDQ in vivo in steroid-dependent asthma patients; set-up: species or system human
Description: Four women and two men (with an average age of 41 years); between 17 and 56 years participated in this study, who suffered from extrinsic bronchial asthma, and had earlier been treated with at least 20 mg/day of prednisolone (11,17,21-trihydroxypregn-4-ene-3,20-dione) or with an equivalent steroidal hormone since 2 to 15 years of age. During the experimental period, the patients were kept on the treatment commonly used for bronchial asthma, except steroidal hormones.
On admission, their respiratory function characteristics were as follows:
Their sputum became more dilute and easy to eliminate. On auscultation, a soft vesicular respiration was again observed over their lungs. The X-ray picture of the lungs was in agreement with the clinical improvement.
On the fifteenth day of treatment, the respiratory functions were as follows:
The experiment described in Example 10 was repeated, except that daily 300 mg of allopurinol (Milurit®, EGIS Pharmaceutical Works) were daily administered simultaneously with the start of the MTDQ administration. […] In the case of a prolonged treatment, the daily amount of MTDQ could be decreased from 2500 mg to 1000-1200 mg by using this combination.

CC1=CC(C)(C)Nc2ccccc21 [2,2,4-trimethyl-1,2-dihydroquinoline]
Normalization of increased Cytochrome C and P450 activities (cytochrome C and P 450): did not exert this effect either

CC1(C)C=C(CS(=O)(=O)O)c2ccccc2N1 [2,2-dimethyl-4-methane-sulfonic acid salt-1,2-dihydroquinoline]
Normalization of increased Cytochrome C and P450 activities (cytochrome C and P 450): did not exert this effect either

NC(=O)c1nc[nH]c1N [4-amino-5-imidozolcarboxidamide]
Normalization of increased Cytochrome C and P450 activities (cytochrome C and P 450): did not exert this effects

Oc1cc(O)c2c(c1)O[C@H](c1ccc(O)c(O)c1)[C@@H](O)C2 [(+) --Cyanidol]
Normalization of increased Cytochrome C and P450 activities (cytochrome C and P 450): did not exert this effects

CC(C)(S)[C@@H](N)C(=O)O [D-Pencillamino]
Normalization of increased Cytochrome C and P450 activities (cytochrome C and P 450): did not exert this effects

C[C@@H]1C[C@H]2[C@@H]3CCC4=CC(=O)C=C[C@]4(C)[C@@]3(F)[C@@H](O)C[C@]2(C)[C@@]1(O)C(=O)CO [Dexamethasone]
Rate of survival ([1]; 20 mg/kg/day i.v. during hyperoxia): did not improve | PGF1C and TXB2 concentrations ([1]; 20 mg/kg/day i.v., compared to physiological parameters): significantly lower | Pathological lesions at autopsy and histology ([1]; 20 mg/kg/day i.v., compared with Group 1): number and severity of the pathological lesions were found less than in Group 1

CC(=O)C(c1ccc2c(c1)C(C)=CC(C)(C)N2)c1ccc2c(c1)C(C)=CC(C)(C)N2 [Example 1, 6,6'-acetylmethine-bis(2,2,4-trimethyl-1,2-dihydroquinoline)]
TXB2 ([2]; 20/μM compound): 0.68 ± 0.14 | TXB2 ([2]; 100/μM compound): 0.53 ± 0.08 | Tumor inhibition (Erlich ascites tumor; 150 mg/kg oral daily, CFLP male mice, 17th day): 80% | Ascites ml. (Erlich ascites tumor; 150 mg/kg, control 15.06 + 2.85): 3.95 + 0.62 ml | number of cells (Erlich ascites tumor; 150 mg/kg, control 96.5 × 10^7 /ml): 7.33e+07 mL⁻¹ | Gastric mucosa lesions as percentage of the whole surface (gastric mucosa): 4.2±0.51% | LD50 at 240 h [3]: > 5000 mg/kg | Survival and observations (Wistar rats; single oral dose 1 g/kg, day 11): all rats were alive | Mortality (Wistar rats; single oral dose 5 g/kg, n=8, 10 days of observation): Two rats belonging to Group 2 died on day 8

CC(=O)C(c1ccc2c(c1)C(CS(=O)(=O)O)=CC(C)(C)N2)c1ccc2c(c1)C(CS(=O)(=O)O)=CC(C)(C)N2 [Example 4, sodium salt of 6,6'-acetylmethine-bis(2,2-dimethyl-1,2-dihydroquinoline-4-methanesulfonicacid)]
Rate of death ([1]; 65 mg/kg i.v. during hyperoxia, untreated 50% died): 4% | Pathological lesions at autopsy and histology ([1]; 65 mg/kg i.v., animals sacrificed on 35th day): no pathological lesions were detected

CC1=CC(C)(C)Nc2ccc(Cc3ccc4c(c3)C(C)=CC(C)(C)N4)cc21 [MTDQ, 6,6'-methylene-bis(2,2,4-trimethyl-1,2-dihydroquinoline)]
Omission of steroidal hormone ([4]; MTDQ combined with 300 mg allopurinol daily): the steroidal hormone could immediately be omitted | Daily amount of MTDQ needed in prolonged treatment ([4]; combined with 300 mg allopurinol daily, decreased from 2500 mg): 1000 to 1200 mg | Partial oxygen pressure in the arterial blood ([4]; fifteenth day of treatment, MTDQ 25 mg/kg orally daily, steroid stopped on day 4): 10.9±0.45 kPa | Forced expiratory volume ([4]; fifteenth day of treatment, MTDQ 25 mg/kg orally daily, normal value 2.5 to 2.8): 2.06 ± 0.8 L | Forced vital capacity ([4]; fifteenth day of treatment, MTDQ 25 mg/kg orally daily, normal value 3.5 to 4): 3.78 ± 0.33 L | Clinical improvement ([4]; fifth day, MTDQ 25 mg/kg orally daily): the patients became attack-free

O=C1O[C@H]([C@@H](O)CO)C(O)=C1O [Vitamin C]
Normalization of increased Cytochrome C and P450 activities (cytochrome C and P 450): did not exert this effects

Vitamin A
Normalization of increased Cytochrome C and P450 activities (cytochrome C and P 450): did not exert this effects

— patent publication US5202338A, “Dihydroquinoline derivatives, pharmaceutical compositions and methods of use of dihydroquinoline derivatives as modulators of the arachidonic acid cascade” (priority 1990, dated 1993)
